Where a SMILES comes first, the peptide text is derived from it. The star is where a group is joined. Cbz = O=C(OCc1ccccc1)*
Tested on: BJeLR
Experiment: Modulatory profiling: Alamar Blue viability, lethal compound cotreated with death modulator (EC50, AUC)
Format: cell-based, human
Parameters: AUC, modulator BJ.Gd3+ / AUC, modulator BJ.LNAME / AUC, modulator BJ.Lmin / AUC, modulator BJ.3MA / AUC, modulator BJ.ALLN / AUC, modulator BJ.Boc D / AUC, modulator BJ.CHX / AUC, modulator BJ.Co2+ / AUC, modulator BJ.Nec-1 / AUC, modulator BJ.Pepstatin / AUC, modulator BJ.TLCK / AUC, modulator BJ.atoc / AUC, modulator BJ.trolox / AUC, modulator BJ.zVAD: unit not given beside the values
Conditions: for AUC, modulator BJ.3MA / AUC, modulator BJ.ALLN / AUC, modulator BJ.Boc D / AUC, modulator BJ.CHX / AUC, modulator BJ.Co2+ / AUC, modulator BJ.DPQ / AUC, modulator BJ.Gd3+ / AUC, modulator BJ.LNAME / AUC, modulator BJ.Lmin/NAD+ / AUC, modulator BJ.Lmin / AUC, modulator BJ.NAD+ / AUC, modulator BJ.NMMA / AUC, modulator BJ.Nec-1 / AUC, modulator BJ.Pepstatin / AUC, modulator BJ.TLCK / AUC, modulator BJ.atoc / AUC, modulator BJ.trolox / AUC, modulator BJ.zVAD: BJeLR cells, modulatory profile value (AUC); for AUC, modulator BJ.3MA: lethal compound cotreated with modulator 3MA; for AUC, modulator BJ.ALLN: lethal compound cotreated with modulator ALLN; for AUC, modulator BJ.Boc D: lethal compound cotreated with modulator Boc D; for AUC, modulator BJ.CHX: lethal compound cotreated with modulator CHX; for AUC, modulator BJ.Co2+: lethal compound cotreated with modulator Co2+; for AUC, modulator BJ.DPQ: lethal compound cotreated with modulator DPQ; for AUC, modulator BJ.Gd3+: lethal compound cotreated with modulator Gd3+; for AUC, modulator BJ.LNAME: lethal compound cotreated with modulator LNAME; for AUC, modulator BJ.Lmin/NAD+: lethal compound cotreated with modulator Lmin/NAD+; for AUC, modulator BJ.Lmin: lethal compound cotreated with modulator Lmin; for AUC, modulator BJ.NAD+: lethal compound cotreated with modulator NAD+; for AUC, modulator BJ.NMMA: lethal compound cotreated with modulator NMMA; for AUC, modulator BJ.Nec-1: lethal compound cotreated with modulator Nec-1; for AUC, modulator BJ.Pepstatin: lethal compound cotreated with modulator Pepstatin; for AUC, modulator BJ.TLCK: lethal compound cotreated with modulator TLCK; for EC50: Homo sapiens, BJeLR, 48 h; for AUC, modulator BJ.atoc: lethal compound cotreated with modulator atoc; for AUC, modulator BJ.trolox: lethal compound cotreated with modulator trolox; for AUC, modulator BJ.zVAD: lethal compound cotreated with modulator zVAD

SMILES | AUC, modulator BJ.3MA | AUC, modulator BJ.ALLN | AUC, modulator BJ.Boc D | AUC, modulator BJ.CHX | AUC, modulator BJ.Co2+ | AUC, modulator BJ.DPQ | AUC, modulator BJ.Gd3+ | AUC, modulator BJ.LNAME | AUC, modulator BJ.Lmin/NAD+ | AUC, modulator BJ.Lmin | AUC, modulator BJ.NAD+ | AUC, modulator BJ.NMMA | AUC, modulator BJ.Nec-1 | AUC, modulator BJ.Pepstatin | AUC, modulator BJ.TLCK | AUC, modulator BJ.atoc | AUC, modulator BJ.trolox | AUC, modulator BJ.zVAD | further results
COC(=O)[C@@H]1Cc2c([nH]c3ccccc23)C(C)(C)N1C(=O)CCl [CIL79] | 0.0798 | 0.02717 | 0.02938 | −0.04651 | 0.1763 | 0.003967 | 0.00956 | 0.01544 | 0.2136 | 0.2049 | −0.00637 | −0.008594 | 0.2258 | 0.04063 | 0.1984 |  |  |  | EC50 (DMSO): 157 nM; EC50 (cotreated with Lmim_NAD): 566 nM; EC50 (cotreated with antioxidant Trolox): 8320 nM; EC50 (cotreated with antioxidant atoc): 7930 nM; EC50 (cotreated with iron-chelator Lmim): 667 nM
O=C(/C=C/c1cccc(NC(=O)c2cccs2)c1)c1ccccc1 [CIL33] | 0.06199 | −0.1124 | −0.03229 | 0.1026 | 0.04311 | 0.02549 | −0.06539 | −0.03157 | −0.0126 | 0.01529 | 0.05051 | 0.0458 | −0.08953 | 0.07672 | −0.1077 | 0.0414 | −0.05339 | −0.02675 | 
CC(C)C[C@@H](C=O)NC(=O)[C@H](CC(C)C)NC(=O)[C@H](CC(C)C)NC(=O)OCc1ccccc1 [MG132, reference compound] (Cbz-Leu-Leu-Leu-aldehyde) | −0.04346 | −0.2701 | 0.04216 | 0.2476 | 0.1849 | −0.01327 | 0.03163 | 0.01789 | 0.2064 | 0.1487 | 0.04274 | 0.02073 | −0.0504 | −0.02291 | 0.1241 | −0.002326 | −0.01449 | −0.08452 | 
CC(C)C[C@H](NC(=O)[C@H](CC(C)C)NC(=O)[C@H](CC(C)C)NC(=O)OCc1ccccc1)B(O)O [MG262] | −0.0362 | −0.1989 | 0.01756 | 0.2438 | 0.1109 | 0.005064 | 0.02134 | 0.02272 | 0.152 | 0.1437 | 0.06084 | −0.006928 | −0.01342 | 0.006624 | 0.09405 | 0.05198 | 0.008087 | −0.05498 | 
COC(C)(C)C#CC(=O)c1cccc2ccccc12 [CIL34] | 0.07701 | −0.04374 | −0.02462 | 0.1215 | 0.07311 | 0.03951 | −0.032 | −0.01631 | 0.04257 | −0.0234 | −0.004372 | 0.03326 | −0.03852 | 0.04418 | −0.1073 | 0.05781 | 0.007029 | 0.005997 | 
O=C1c2c(O)ccc(O)c2C(=O)c2c(NCCNCCO)ccc(NCCNCCO)c21 [Mitoxantrone] | 0.03352 | 0.06204 | 0.03746 | 0.1437 | 0.4538 | −0.05814 | 0.01069 | 0.007578 | 0.1162 | 0.04368 | 0.08733 | 0.004431 | −0.03038 | 0.003263 | 0.02288 | 0.02585 | −0.01862 | 0.0497 | 
COC(=O)c1ccc([C@@H]2c3[nH]c4ccccc4c3C[C@@H](C(=O)OC)N2C(=O)CCl)cc1 [RSL3, reference compound] | 0.09104 | 0.01266 | 0.03832 | 0.1841 | 0.1091 | 0.03115 | 0.02448 | 0.02932 | 0.3858 | 0.3462 | 0.04136 | 0.007806 | 0.2379 | −0.0008093 | 0.2732 | 0.3601 | 0.3731 | 0.00586 | 
Cc1cccnc1Nc1nc(-c2ccccn2)cs1 [CIL13] | 0.09083 | −0.03933 | −0.02989 | −0.1264 | 0.5287 | 0.007392 | 0.04263 | 0.01544 | −0.05456 | −0.03412 | 0.01378 | −0.03177 | 0.04738 | 0.03784 | 0.3412 | −0.005646 | −0.006649 | −0.004568 | 
Cc1ccc(O)c(/N=C/C=C/c2cccc(Br)c2)c1 [CIL27] | 0.0403 | −0.06604 | −0.08049 | 0.1399 | 0.05931 | 0.0171 | −0.02406 | −0.04381 | 0.02365 | 0.01472 | −0.01357 | 0.009474 | −0.05452 | 0.006509 | −0.03065 | 0.002404 | 0.0004949 | −0.003575 | 
CS[C@H]1SC[C@H]2C(=O)N(C)[C@@H](C(C)C)C(=O)OC[C@@H](NC(=O)c3cnc4ccccc4n3)C(=O)N[C@@H](C)C(=O)N(C)[C@@H]1C(=O)N(C)[C@@H](C(C)C)C(=O)OC[C@@H](NC(=O)c1cnc3ccccc3n1)C(=O)N[C@@H](C)C(=O)N2C [Echinomycin] | 0.3457 | 0.02426 | 0.04925 | 0.2015 | 0.09321 | −0.004325 | 0.002041 | 0.01199 | 0.2351 | 0.1205 | 0.2292 | 0.01082 | −0.01901 | −0.004369 | −0.001724 | 0.1681 | −0.04322 | 0.005973 | 
CC(C)C[C@H](NC(=O)[C@H](Cc1ccccc1)NC(=O)c1cnccn1)B(O)O [Bortezomib] | 0.001928 | −0.1031 | 0.03032 | 0.2984 | 0.2379 | −0.007392 | −0.03227 | −0.008649 | 0.1491 | 0.09993 | 0.05175 | −0.0002968 | 0.002293 | 0.000698 | 0.07108 | 0.01647 | 0.01237 | 0.005086 | 
O=C(CCCCCN1C(=O)c2cccc3cccc(c23)C1=O)NO [Scriptaid] | −0.0206 | −0.07856 | 0.03167 | 0.2681 | 0.2406 | 0.004892 | 0.0289 | 0.03611 | 0.2114 | 0.1113 | 0.1384 | 0.02102 | 0.02804 | −0.0282 | 0.07545 | −0.005396 | −0.0185 | 0.1205 | 
COc1ccc(Nc2ccc3c(c2)=NC2(CCCCC2)[N+]=3[O-])cc1 [CIL9] | 0.0465 | −0.1202 | −0.06171 | 0.03696 | −0.009162 | −0.01225 | −0.01038 | 0.01336 | 0.01499 | −0.03967 | 0.0007181 | −0.01541 | 0.02689 | 0.0182 | −0.01752 | 0.02754 | 0.05397 | −0.02708 | 
